In data set [1] the test system is L1210 leukemia. The data set can be described thus: Relation between effect and chemical structure in mice suffering from L1210 leukemia (Table III). The data set is classed as in vivo. From the text: Examination of the relation between the
effect and the chemical structure with compounds
similar to compound of formula X in mice suffering

The next data set has as its system L-1210 leukemia. As to the kind of experiment: Effect on intraperitoneally implanted L-1210 leukemia in mice (Table I). Format: in vivo. The conditions noted are these: treatment 3 days. The source says: In table I the effect of Compound X [drawing 8] and VII on intraperitoneally implanted L-1210 leukemia is shown on mice.
Tumor inoculum = 10^6, ascites cells, i.p.
Host animal = CDF, female mice
Toxicity = on the 5th day < 4/6 mice are alive.
Evaluation = MST = average survival period
Critical limit = T/C ≥ 125, significant antitumor activity.

Data set [2] relates to L1210 leukemia. Format: in vivo, mice. The source says: Effect of compound of formula X in combination
with pharmaceuticals in mice suffering from L1210

For a further data set, the system named is Lewis lung tumor. As to the kind of experiment: Effect on solid tumors: Lewis lung metastatizing mice tumor (i.m.). Format: in vivo. The source says: (§1) (B) Lewis lung and B16 melanoma - meta-
(§2) statizing mice tumor (i.m.)
(§3) i.p. administration from the 1st day after […]

Another data set relates to B16 melanoma. As to the kind of experiment: Effect on solid tumors: B16 melanoma metastatizing mice tumor (i.m.). Format: in vivo.
From the text: as §1, §2, §3

The record followed here is patent US4950651A, “Nitroso-N-(β-chloro ethyl)-carbamoyl peptides” (priority 1981, dated 1990).

Where a name gives a salt, the structure may show the parent alone. Read-outs that look alike come from different tables or passages of the source. Where a SMILES comes first, the peptide text is derived from it. The star is where a group is joined. Carbamoyl(2-ClEt,NO) = O=NN(CCCl)C(=O)*

Consider `CC(C)[C@H](NC(=O)[C@@H]1CCCN1C(=O)[C@H](CCCCN)NC(=O)CNC(=O)N(CCCl)N=O)C(N)=O` [XII, α-N-nitroso-N-(β-chloro-ethyl)-carbamoyl-glycyl-lysyl-prolyl-valine-amide-hydrochloride] ({Carbamoyl(2-ClEt,NO)}-GKPV-NH2), for which the ILS % with L1210 leukemia [1] (15 mg/kg) came out at 20%; in the data set on L1210 leukemia [1] (45 mg/kg), 10%; in the data set with L1210 leukemia [1] (100 mg/kg), 35%; with L1210 leukemia [1] (150 mg/kg), 230%.
`O=NN(CCCl)C(=O)N[C@H]1C(O)O[C@H](CO)[C@@H](O)[C@@H]1O` (stereo partly drawn) [Chlorosoticin, 2-[3-(2-chloro-ethyl)-3-nitroso-ureido]-2-deoxy-O-glycopyranose]: in the data set on L-1210 leukemia (dose IP 8 mg/kg), the “Average loss of weight on the 5th day” value is reported as “+1.2 g”; the “MST (average survival period)” value was found to be 9.0 days; the “MST efficiency %, T/C” value is recorded as 150%; the “Number of live mice on the 5th day” value is 6/6. Further, in the data set with L-1210 leukemia (dose IP 16 mg/kg), the “Average loss of weight on the 5th day” value is recorded as -0.8 g; the “MST (average survival period)” value was found to be 20.5 days; the “MST efficiency %, T/C” value is 342%; the “Number of live mice on the 5th day” value is listed as 6/6. Moreover, in the data set with L-1210 leukemia (dose IP 32 mg/kg), the “Average loss of weight on the 5th day” value is reported as -1.2 g; the “MST (average survival period)” value is above 47.0 days; the “MST efficiency %, T/C” value is above 783%; the “Number of live mice on the 5th day” value was 5/6. Further, in the data set with L-1210 leukemia (dose IP 32 mg/kg), the “Number of live mice on the [47th] day” value was found to be 3. For the same molecule, in the data set on L-1210 leukemia (dose IP 48 mg/kg), the “Average loss of weight on the 5th day” value is listed as -1.3 g; the “MST (average survival period)” value was 8.5 days; the “MST efficiency %, T/C” value worked out at 142%; the “Number of live mice on the 5th day” value is listed as 6/6.
`O=P1(N(CCCl)CCCl)NCCCO1` (stereo not drawn) [cyclophosphamide]: in the data set on L1210 leukemia [2] (1 × 50 mg/kg, day 2), the ILS % was found to be 44%.
For `O[C@H]([C@H](O)[C@@H](O)CBr)[C@H](O)CBr` [dibromodulcitol], the ILS % in the data set on L1210 leukemia [2] (1 × 50 mg/kg, day 2) is 0%.
As to `O=NN(CCCl)C(=O)NCCCl` [BCNU, 1,3-bis-(β-chloro-ethyl)-1-nitroso-urea], the “Average loss of weight on the 5th day” value in the data set with L-1210 leukemia (dose IP 30 mg/kg) is recorded as -0.8 g; with L-1210 leukemia (dose IP 40 mg/kg), -1.4 g. Moreover, the “MST (average survival period)” value in the data set on L-1210 leukemia (dose IP 30 mg/kg) and in the data set with L-1210 leukemia (dose IP 40 mg/kg) was above 47.0 days throughout. In addition, the “MST efficiency %, T/C” value with L-1210 leukemia (dose IP 30 mg/kg) and in the data set with L-1210 leukemia (dose IP 40 mg/kg) was above 783% in each case. In addition, the “Number of live mice on the 5th day” value in the data set with L-1210 leukemia (dose IP 30 mg/kg) and with L-1210 leukemia (dose IP 40 mg/kg) was 6/6 in each case. Besides, the “Number of live mice on the [47th] day” value in the data set with L-1210 leukemia (dose IP 30 mg/kg) and in the data set with L-1210 leukemia (dose IP 40 mg/kg) was 5 in each case. The ILS % worked out at 25% in the data set on L1210 leukemia [2] (5 mg/kg, day 1); 110% in the data set on L1210 leukemia [2] (20 mg/kg, day 1); 77% in the data set with L1210 leukemia [2] (1 × 10 mg/kg, day 2); 70% with L1210 leukemia [2] (1 × 20 mg/kg, day 3); 36% in the data set on Lewis lung tumor (20 mg/kg i.p.); 19% in the data set on Lewis lung tumor (5 × 4 mg/kg i.p.). Besides, the ILS % in the data set on B16 melanoma (20 mg/kg i.p.) came to 61%; in the data set on B16 melanoma (5 × 4 mg/kg i.p.) it was 31%. Further, the Median surviving day in the data set on Lewis lung tumor (20 mg/kg i.p.) amounted to 28.5 days; in the data set on Lewis lung tumor (5 × 4 mg/kg i.p.), 25.0 days; with B16 melanoma (20 mg/kg i.p.), 42.0 days; in the data set on B16 melanoma (5 × 4 mg/kg i.p.), 34.0 days.
